Assay results reported in US6656676B2, “Silver halide color photographic material” (Konica Corporation, priority 2001, dated 2003).

Assay: pKa of the oil-soluble basic compound by alkalimetry
Format: physicochemical
Settings: ethanol/water solution, alkalimetry at 25° C.
Method: As is commonly known, the pKa value refers to a logarithmic acid dissociation constant (Ka), i.e., pKa=−logKa, which is also called an acid electrolytic dissociation exponent. The pKa value of the oil-soluble basic compound can be determined by the alkalimetry, in the following manner. Thus, 50 mg pf a compound sample is dissolved in 40 ml of ethanol and after adding 10 ml of distilled water thereto, 3 ml of a 0.5 mol/l hydrochloric solution and 12 ml of ethanol are further added. The thus prepared solution is subjected to an alkalimetry at a temperature of 25° C. using an alkaline solution (which is comprised of 2.0 g of sodium hydroxide, 200 ml of distilled water and 800 ml of ethanol) and an automatic titration apparatus (Auto Titrator AUT-301, available from TOA electronics, Ltd.).

| SMILES | pKa |
| --- | --- |
| CCCCCCCCCCCCCCOc1ccc(N2CCCCC2)cc1 [Compd.-2] | 5 |
| CC1(C)CC(OC(=O)CCCCCCCCC(=O)OC2CC(C)(C)NC(C)(C)C2)CC(C)(C)N1 [Compd.-3] | 8.7 |
| CCCCCCCCCCCCCCOC(=O)CCN1CCN(CCC(=O)OCCCCCCCCCCCCCC)CC1 [OC-4] | 6.2 |
| CCCCCCCCCCCCN1CCN(CCCCCCCCCCCC)CC1 [OC-6] | 7.2 |
